Source: ChEMBL document CHEMBL4765227, “Hit to lead optimization of a series of N-[4-(1,3-benzothiazol-2-yl)phenyl]acetamides as monoacylglycerol lipase inhibitors with potential anticancer activity” (Eur J Med Chem, 2016)

Columns and labels:
Type in all cases: functional
Details in all cases: read-out: GI
NCI-H522 = assay: Growth inhibition of human NCI-H522 cells at 10 uM incubated for 48 hrs by sulforhodamine B assay relative to control
UACC-62 = assay: Growth inhibition of human UACC-62 cells at 10 uM incubated for 48 hrs by sulforhodamine B assay relative to control
HOP-62 = assay: Growth inhibition of human HOP-62 cells at 10 uM incubated for 48 hrs by sulforhodamine B assay relative to control
OVCAR-8 = assay: Growth inhibition of human OVCAR-8 cells at 10 uM incubated for 48 hrs by sulforhodamine B assay relative to control
NCI-H226 = assay: Growth inhibition of human NCI-H226 cells at 10 uM incubated for 48 hrs by sulforhodamine B assay relative to control
MDA-MB-468 = assay: Growth inhibition of human MDA-MB-468 cells at 10 uM incubated for 48 hrs by sulforhodamine B assay relative to control
SW-620 = assay: Growth inhibition of human SW-620 cells at 10 uM incubated for 48 hrs by sulforhodamine B assay relative to control
K562 = assay: Growth inhibition of human K562 cells at 10 uM incubated for 48 hrs by sulforhodamine B assay relative to control
MDA-MB-231 = assay: Growth inhibition of human MDA-MB-231 cells at 10 uM incubated for 48 hrs by sulforhodamine B assay relative to control
MOLT-4 = assay: Growth inhibition of human MOLT-4 cells at 10 uM incubated for 48 hrs by sulforhodamine B assay relative to control
SN12C = assay: Growth inhibition of human SN12C cells at 10 uM incubated for 48 hrs by sulforhodamine B assay relative to control
MDA-MB-435 = assay: Growth inhibition of human MDA-MB-435 cells at 10 uM incubated for 48 hrs by sulforhodamine B assay relative to control
HCC 2998 = assay: Growth inhibition of human HCC 2998 cells at 10 uM incubated for 48 hrs by sulforhodamine B assay relative to control
KM12 = assay: Growth inhibition of human KM12 cells at 10 uM incubated for 48 hrs by sulforhodamine B assay relative to control
SK-MEL-5 = assay: Growth inhibition of human SK-MEL-5 cells at 10 uM incubated for 48 hrs by sulforhodamine B assay relative to control
NCI-H322M = assay: Growth inhibition of human NCI-H322M cells at 10 uM incubated for 48 hrs by sulforhodamine B assay relative to control
IGROV-1 = assay: Growth inhibition of human IGROV-1 cells at 10 uM incubated for 48 hrs by sulforhodamine B assay relative to control
T47D = assay: Growth inhibition of human T47D cells at 10 uM incubated for 48 hrs by sulforhodamine B assay relative to control
CCRF-CEM = assay: Growth inhibition of human CCRF-CEM cells at 10 uM incubated for 48 hrs by sulforhodamine B assay relative to control
SK-OV-3 = assay: Growth inhibition of human SK-OV-3 cells at 10 uM incubated for 48 hrs by sulforhodamine B assay relative to control
ACHN = assay: Growth inhibition of human ACHN cells at 10 uM incubated for 48 hrs by sulforhodamine B assay relative to control
BT-549 = assay: Growth inhibition of human BT-549 cells at 10 uM incubated for 48 hrs by sulforhodamine B assay relative to control
SK-MEL-28 = assay: Growth inhibition of human SK-MEL-28 cells at 10 uM incubated for 48 hrs by sulforhodamine B assay relative to control
RXF 393 = assay: Growth inhibition of human RXF 393 cells at 10 uM incubated for 48 hrs by sulforhodamine B assay relative to control
TK-10 = assay: Growth inhibition of human TK-10 cells at 10 uM incubated for 48 hrs by sulforhodamine B assay relative to control
HOP-92 = assay: Growth inhibition of human HOP-92 cells at 10 uM incubated for 48 hrs by sulforhodamine B assay relative to control
PC-3 = assay: Growth inhibition of human PC-3 cells at 10 uM incubated for 48 hrs by sulforhodamine B assay relative to control
HL-60(TB) = assay: Growth inhibition of human HL-60(TB) cells at 10 uM incubated for 48 hrs by sulforhodamine B assay relative to control
UO-31 = assay: Growth inhibition of human UO-31 cells at 10 uM incubated for 48 hrs by sulforhodamine B assay relative to control
OVCAR-5 = assay: Growth inhibition of human OVCAR-5 cells at 10 uM incubated for 48 hrs by sulforhodamine B assay relative to control
M14 = assay: Growth inhibition of human M14 cells at 10 uM incubated for 48 hrs by sulforhodamine B assay relative to control
CAKI-1 = assay: Growth inhibition of human CAKI-1 cells at 10 uM incubated for 48 hrs by sulforhodamine B assay relative to control
DU-145 = assay: Growth inhibition of human DU-145 cells at 10 uM incubated for 48 hrs by sulforhodamine B assay relative to control
RPMI-8226 = assay: Growth inhibition of human RPMI-8226 cells at 10 uM incubated for 48 hrs by sulforhodamine B assay relative to control
HCT-116 = assay: Growth inhibition of human HCT-116 cells at 10 uM incubated for 48 hrs by sulforhodamine B assay relative to control
A549 = assay: Growth inhibition of human A549/ATCC cells at 10 uM incubated for 48 hrs by sulforhodamine B assay relative to control
NCI-H460 = assay: Growth inhibition of human NCI-H460 cells at 10 uM incubated for 48 hrs by sulforhodamine B assay relative to control
U-251 = assay: Growth inhibition of human U-251 cells at 10 uM incubated for 48 hrs by sulforhodamine B assay relative to control
SNB-19 = assay: Growth inhibition of human SNB-19 cells at 10 uM incubated for 48 hrs by sulforhodamine B assay relative to control
HCT-15 = assay: Growth inhibition of human HCT-15 cells at 10 uM incubated for 48 hrs by sulforhodamine B assay relative to control
SNB-75 = assay: Growth inhibition of human SNB-75 cells at 10 uM incubated for 48 hrs by sulforhodamine B assay relative to control
HT-29 = assay: Growth inhibition of human HT-29 cells at 10 uM incubated for 48 hrs by sulforhodamine B assay relative to control
Malme-3M = assay: Growth inhibition of human Malme-3M cells at 10 uM incubated for 48 hrs by sulforhodamine B assay relative to control
NCI/ADR-RES = assay: Growth inhibition of human NCI/ADR-RES cells at 10 uM incubated for 48 hrs by sulforhodamine B assay relative to control

## O=C(CNc1ccccc1)Nc1ccc(-c2nc3ccccc3s2)cc1
NCI-H522
  inhibition of growth at 10 µM: 26%
UACC-62
  inhibition of growth at 10 µM: 23.5%
HOP-62
  inhibition of growth at 10 µM: -12%
OVCAR-8
  inhibition of growth at 10 µM: 9.58%
NCI-H226
  inhibition of growth at 10 µM: 5.83%
MDA-MB-468
  inhibition of growth at 10 µM: 29.5%
SW-620
  inhibition of growth at 10 µM: -6.41%
K562
  inhibition of growth at 10 µM: 22.5%
MDA-MB-231
  inhibition of growth at 10 µM: -0.13%
MOLT-4
  inhibition of growth at 10 µM: 84.5%
SN12C
  inhibition of growth at 10 µM: 8.85%
MDA-MB-435
  inhibition of growth at 10 µM: 12.6%
HCC 2998
  inhibition of growth at 10 µM: -16%
KM12
  inhibition of growth at 10 µM: 5.48%
SK-MEL-5
  inhibition of growth at 10 µM: 22%
NCI-H322M
  inhibition of growth at 10 µM: 12.9%
IGROV-1
  inhibition of growth at 10 µM: 16.1%
T47D
  inhibition of growth at 10 µM: 21.4%
CCRF-CEM
  inhibition of growth at 10 µM: 74.3%
SK-OV-3
  inhibition of growth at 10 µM: -24.1%
ACHN
  inhibition of growth at 10 µM: -2.46%
BT-549
  inhibition of growth at 10 µM: 43.5%
SK-MEL-28
  inhibition of growth at 10 µM: 3.37%
RXF 393
  inhibition of growth at 10 µM: 5.43%
TK-10
  inhibition of growth at 10 µM: -17.9%
HOP-92
  inhibition of growth at 10 µM: 3.37%
PC-3
  inhibition of growth at 10 µM: 10.1%
HL-60(TB)
  inhibition of growth at 10 µM: 11%
UO-31
  inhibition of growth at 10 µM: 30.2%
OVCAR-5
  inhibition of growth at 10 µM: -10.9%
M14
  inhibition of growth at 10 µM: 12.9%
CAKI-1
  inhibition of growth at 10 µM: 1.16%
DU-145
  inhibition of growth at 10 µM: 3.91%
RPMI-8226
  inhibition of growth at 10 µM: 12.5%
HCT-116
  inhibition of growth at 10 µM: 29.7%
A549
  inhibition of growth at 10 µM: 9.72%
NCI-H460
  inhibition of growth at 10 µM: 0.08%
U-251
  inhibition of growth at 10 µM: 14.8%
SNB-19
  inhibition of growth at 10 µM: 8.22%
HCT-15
  inhibition of growth at 10 µM: 29.6%
SNB-75
  inhibition of growth at 10 µM: 17.4%
HT-29
  inhibition of growth at 10 µM: 2%
Malme-3M
  inhibition of growth at 10 µM: 4.9%
NCI/ADR-RES
  inhibition of growth at 10 µM: 1.75%
